Data taken from PMC3353862.
Values after ≈ are worked out from the molar mass of the structure shown.

The molecules below were run on bacterial protein synthesis (aminoacylation/translation system) (assay: aminoacylation/translation (A/T) assay). Details: A/T assay, Table 1; read-out: IC50.
Format: biochemical

Structure (SMILES)	IC50 [nM]
COc1ccccc1CN1CCc2nc(-c3ccccn3)nc(O)c2C1 [Compound 321527]	1800
COc1ccc(CN2CCc3nc(-c4ccccn4)nc(O)c3C2)cc1 [Compound 321529]	2600
COc1ccc(OC)c(CN2CCc3nc(-c4ccccn4)[nH]c(=O)c3C2)c1 [Compound 323191]	> 300000
O=c1[nH]c(-c2ccccn2)nc2c1CN(Cc1ccccc1OCc1ccccn1)CC2 [Compound 323192]	> 300000
C=CCOc1ccccc1CN1CCc2nc(-c3ccccn3)[nH]c(=O)c2C1 [Compound 323194]	3400
O=c1[nH]c(-c2ccccn2)nc2c1CN(Cc1ccccc1N1CCCC1)CC2 [Compound 323195]	1500
O=c1[nH]c(-c2ccccn2)nc2c1CN(Cc1cccc(O)c1O)CC2 [Compound 323196]	1600

Each molecule was assayed on S. aureus (assay: Broth microdilution MIC testing). Details: S. aureus.
Format: cell-based, Staphylococcus aureus

Structure (SMILES)	MIC S. aureus [µg/mL]
COc1ccc(OC)c(CN2CCc3nc(-c4ccccn4)[nH]c(=O)c3C2)c1 [Compound 323191]	> 128
O=c1[nH]c(-c2ccccn2)nc2c1CN(Cc1ccccc1OCc1ccccn1)CC2 [Compound 323192]	> 128
C=CCOc1ccccc1CN1CCc2nc(-c3ccccn3)[nH]c(=O)c2C1 [Compound 323194]	64 (≈ 171 µM)
O=c1[nH]c(-c2ccccn2)nc2c1CN(Cc1ccccc1N1CCCC1)CC2 [Compound 323195]	64 (≈ 165 µM)
O=c1[nH]c(-c2ccccn2)nc2c1CN(Cc1cccc(O)c1O)CC2 [Compound 323196]	> 128

Same assay, conditions: Staphylococcus aureus, read-out: MIC S. aureus

Structure (SMILES)	MIC [µg/mL]
COc1ccccc1CN1CCc2nc(-c3ccccn3)nc(O)c2C1 [Compound 321527]	> 128
COc1ccc(CN2CCc3nc(-c4ccccn4)nc(O)c3C2)cc1 [Compound 321529]	> 128

Each molecule was assayed on S. pneumoniae (assay: Broth microdilution MIC testing). Details: S. pneumoniae.
Format: cell-based, Streptococcus pneumoniae

Structure (SMILES)	MIC S. pneumo [µg/mL]
COc1ccc(OC)c(CN2CCc3nc(-c4ccccn4)[nH]c(=O)c3C2)c1 [Compound 323191]	32 (≈ 84.6 µM)
O=c1[nH]c(-c2ccccn2)nc2c1CN(Cc1ccccc1OCc1ccccn1)CC2 [Compound 323192]	32 (≈ 75.2 µM)
C=CCOc1ccccc1CN1CCc2nc(-c3ccccn3)[nH]c(=O)c2C1 [Compound 323194]	8 (≈ 21.4 µM)
O=c1[nH]c(-c2ccccn2)nc2c1CN(Cc1ccccc1N1CCCC1)CC2 [Compound 323195]	32 (≈ 82.6 µM)
O=c1[nH]c(-c2ccccn2)nc2c1CN(Cc1cccc(O)c1O)CC2 [Compound 323196]	> 128

Same assay, conditions: Streptococcus pneumoniae, read-out: MIC S. pneumo

Structure (SMILES)	MIC [µg/mL]
COc1ccccc1CN1CCc2nc(-c3ccccn3)nc(O)c2C1 [Compound 321527]	32 (≈ 91.8 µM)
COc1ccc(CN2CCc3nc(-c4ccccn4)nc(O)c3C2)cc1 [Compound 321529]	32 (≈ 91.8 µM)

Each molecule was assayed on E. coli tolC mutants (assay: Broth microdilution MIC testing). Details: E. coli tolC mutants.
Format: cell-based, Escherichia coli

Structure (SMILES)	MIC E. coli tolC [µg/mL]
COc1ccc(OC)c(CN2CCc3nc(-c4ccccn4)[nH]c(=O)c3C2)c1 [Compound 323191]	128 (≈ 338 µM)
O=c1[nH]c(-c2ccccn2)nc2c1CN(Cc1ccccc1OCc1ccccn1)CC2 [Compound 323192]	128 (≈ 301 µM)
C=CCOc1ccccc1CN1CCc2nc(-c3ccccn3)[nH]c(=O)c2C1 [Compound 323194]	16 (≈ 42.7 µM)
O=c1[nH]c(-c2ccccn2)nc2c1CN(Cc1ccccc1N1CCCC1)CC2 [Compound 323195]	32 (≈ 82.6 µM)
O=c1[nH]c(-c2ccccn2)nc2c1CN(Cc1cccc(O)c1O)CC2 [Compound 323196]	> 128

Same assay, conditions: Escherichia coli, read-out: MIC E. coli tolC

Structure (SMILES)	MIC [µg/mL]
COc1ccccc1CN1CCc2nc(-c3ccccn3)nc(O)c2C1 [Compound 321527]	64 (≈ 184 µM)
COc1ccc(CN2CCc3nc(-c4ccccn4)nc(O)c3C2)cc1 [Compound 321529]	32 (≈ 91.8 µM)

Each molecule was assayed on M. catarrhalis (assay: Broth microdilution MIC testing). Details: not given.
Format: cell-based, Moraxella catarrhalis

Structure (SMILES)	MIC M. cat [µg/mL]
COc1ccc(OC)c(CN2CCc3nc(-c4ccccn4)[nH]c(=O)c3C2)c1 [Compound 323191]	4 (≈ 10.6 µM)
O=c1[nH]c(-c2ccccn2)nc2c1CN(Cc1ccccc1OCc1ccccn1)CC2 [Compound 323192]	4 (≈ 9.4 µM)
C=CCOc1ccccc1CN1CCc2nc(-c3ccccn3)[nH]c(=O)c2C1 [Compound 323194]	1 (≈ 2.67 µM)
O=c1[nH]c(-c2ccccn2)nc2c1CN(Cc1ccccc1N1CCCC1)CC2 [Compound 323195]	2 (≈ 5.16 µM)
O=c1[nH]c(-c2ccccn2)nc2c1CN(Cc1cccc(O)c1O)CC2 [Compound 323196]	128 (≈ 365 µM)

Same assay, conditions: Moraxella catarrhalis

Structure (SMILES)	MIC [µg/mL]
COc1ccccc1CN1CCc2nc(-c3ccccn3)nc(O)c2C1 [Compound 321527]	2 (≈ 5.74 µM)
COc1ccc(CN2CCc3nc(-c4ccccn4)nc(O)c3C2)cc1 [Compound 321529]	2 (≈ 5.74 µM)

Each molecule was assayed on H. influenzae (assay: Broth microdilution MIC testing). Details: H. influenzae.
Format: cell-based, Haemophilus influenzae

Structure (SMILES)	MIC H. flu [µg/mL]
COc1ccc(OC)c(CN2CCc3nc(-c4ccccn4)[nH]c(=O)c3C2)c1 [Compound 323191]	32 (≈ 84.6 µM)
O=c1[nH]c(-c2ccccn2)nc2c1CN(Cc1ccccc1OCc1ccccn1)CC2 [Compound 323192]	64 (≈ 150 µM)
C=CCOc1ccccc1CN1CCc2nc(-c3ccccn3)[nH]c(=O)c2C1 [Compound 323194]	8 (≈ 21.4 µM)
O=c1[nH]c(-c2ccccn2)nc2c1CN(Cc1ccccc1N1CCCC1)CC2 [Compound 323195]	16 (≈ 41.3 µM)
O=c1[nH]c(-c2ccccn2)nc2c1CN(Cc1cccc(O)c1O)CC2 [Compound 323196]	> 128

Same assay, conditions: Haemophilus influenzae, read-out: MIC H. flu

Structure (SMILES)	MIC [µg/mL]
COc1ccccc1CN1CCc2nc(-c3ccccn3)nc(O)c2C1 [Compound 321527]	16 (≈ 45.9 µM)
COc1ccc(CN2CCc3nc(-c4ccccn4)nc(O)c3C2)cc1 [Compound 321529]	8 (≈ 23 µM)

What follows are molecules tested on E. coli modified with PMBN (assay: Broth microdilution MIC testing). Details: E. coli modified with PMBN.
Format: cell-based, Escherichia coli

Structure (SMILES)	MIC E. coli +PMBP [µg/mL]
COc1ccc(OC)c(CN2CCc3nc(-c4ccccn4)[nH]c(=O)c3C2)c1 [Compound 323191]	64 (≈ 169 µM)
O=c1[nH]c(-c2ccccn2)nc2c1CN(Cc1ccccc1OCc1ccccn1)CC2 [Compound 323192]	64 (≈ 150 µM)
C=CCOc1ccccc1CN1CCc2nc(-c3ccccn3)[nH]c(=O)c2C1 [Compound 323194]	16 (≈ 42.7 µM)
O=c1[nH]c(-c2ccccn2)nc2c1CN(Cc1ccccc1N1CCCC1)CC2 [Compound 323195]	16 (≈ 41.3 µM)
O=c1[nH]c(-c2ccccn2)nc2c1CN(Cc1cccc(O)c1O)CC2 [Compound 323196]	> 128

Same assay, conditions: Escherichia coli, read-out: MIC E. coli +PMBP

Structure (SMILES)	MIC [µg/mL]
COc1ccccc1CN1CCc2nc(-c3ccccn3)nc(O)c2C1 [Compound 321527]	> 128
COc1ccc(CN2CCc3nc(-c4ccccn4)nc(O)c3C2)cc1 [Compound 321529]	128 (≈ 367 µM)

The molecules below were run on E. faecalis (assay: Broth microdilution MIC testing). Details: E. faecalis.
Format: cell-based, Enterococcus faecalis

Structure (SMILES)	MIC E. fae [µg/mL]
COc1ccc(OC)c(CN2CCc3nc(-c4ccccn4)[nH]c(=O)c3C2)c1 [Compound 323191]	128 (≈ 338 µM)
O=c1[nH]c(-c2ccccn2)nc2c1CN(Cc1ccccc1OCc1ccccn1)CC2 [Compound 323192]	128 (≈ 301 µM)
C=CCOc1ccccc1CN1CCc2nc(-c3ccccn3)[nH]c(=O)c2C1 [Compound 323194]	64 (≈ 171 µM)
O=c1[nH]c(-c2ccccn2)nc2c1CN(Cc1ccccc1N1CCCC1)CC2 [Compound 323195]	64 (≈ 165 µM)
O=c1[nH]c(-c2ccccn2)nc2c1CN(Cc1cccc(O)c1O)CC2 [Compound 323196]	32 (≈ 91.3 µM)

Same assay, conditions: Enterococcus faecalis, read-out: MIC E. fae

Structure (SMILES)	MIC [µg/mL]
COc1ccccc1CN1CCc2nc(-c3ccccn3)nc(O)c2C1 [Compound 321527]	64 (≈ 184 µM)
COc1ccc(CN2CCc3nc(-c4ccccn4)nc(O)c3C2)cc1 [Compound 321529]	128 (≈ 367 µM)
